Measured values taken from ChEMBL document CHEMBL1240349, “Influence of tigecycline on expression of virulence factors in biofilm-associated cells of methicillin-resistant Staphylococcus aureus” (2010).

Key:
Format in all cases: functional
Staphylococcus aureus [1] = assay: Decrease in mnhG expression in biofilm-associated cells of epidemic methicillin-resistant Staphylococcus aureus isolate 15 at 4 times MIC incubated for 1 hr by RT-PCR relative to untreated control
Staphylococcus aureus [2] = assay: Decrease in sasF gene expression in biofilm-associated cells of epidemic methicillin-resistant Staphylococcus aureus isolate 16 at 4 times MIC incubated for 1 hr by whole genome microarray relative to untreated control
Staphylococcus aureus [3] = assay: Decrease in icaC gene expression in biofilm-associated cells of epidemic methicillin-resistant Staphylococcus aureus isolate 16 at 4 times MIC incubated for 1 hr by whole genome microarray relative to untreated control
Staphylococcus aureus [4] = assay: Increase in fnbA gene expression in biofilm-associated cells of epidemic methicillin-resistant Staphylococcus aureus isolate 16 at 4 times MIC incubated for 1 hr by whole genome microarray relative to untreated control
Staphylococcus aureus [5] = assay: Increase in rpsH gene expression in biofilm-associated cells of epidemic methicillin-resistant Staphylococcus aureus isolate 16 at 4 times MIC incubated for 1 hr by whole genome microarray relative to untreated control
Staphylococcus aureus [6] = assay: Increase in fnbB gene expression in biofilm-associated cells of epidemic methicillin-resistant Staphylococcus aureus isolate 16 at 4 times MIC incubated for 1 hr by whole genome microarray relative to untreated control
Staphylococcus aureus [7] = assay: Decrease in sasF expression in biofilm-associated cells of epidemic methicillin-resistant Staphylococcus aureus isolate 16-2 at 4 times MIC incubated for 1 hr by RT-PCR relative to untreated control
Staphylococcus aureus [8] = assay: Increase in mnhD gene expression in biofilm-associated cells of epidemic methicillin-resistant Staphylococcus aureus isolate 16 at 4 times MIC incubated for 1 hr by whole genome microarray relative to untreated control
Staphylococcus aureus [9] = assay: Increase in dltB gene expression in biofilm-associated cells of epidemic methicillin-resistant Staphylococcus aureus isolate 16 at 4 times MIC incubated for 1 hr by whole genome microarray relative to untreated control
Staphylococcus aureus [10] = assay: Increase in mnhG expression in biofilm-associated cells of epidemic methicillin-resistant Staphylococcus aureus isolate 16-1 at 4 times MIC incubated for 1 hr by RT-PCR relative to untreated control
Staphylococcus aureus [11] = assay: Increase in tuf gene expression in biofilm-associated cells of epidemic methicillin-resistant Staphylococcus aureus isolate 16 at 4 times MIC incubated for 1 hr by whole genome microarray relative to untreated control
Staphylococcus aureus [12] = assay: Increase in sstD gene expression in biofilm-associated cells of epidemic methicillin-resistant Staphylococcus aureus isolate 16 at 4 times MIC incubated for 1 hr by whole genome microarray relative to untreated control
Staphylococcus aureus [13] = assay: Increase in ssaA gene expression in biofilm-associated cells of epidemic methicillin-resistant Staphylococcus aureus isolate 16 at 4 times MIC incubated for 1 hr by whole genome microarray relative to untreated control
Staphylococcus aureus [14] = assay: Decrease in capC gene expression in biofilm-associated cells of epidemic methicillin-resistant Staphylococcus aureus isolate 16 at 4 times MIC incubated for 1 hr by RT-PCR relative to untreated control
Staphylococcus aureus [15] = assay: Increase in isaA expression in biofilm-associated cells of epidemic methicillin-resistant Staphylococcus aureus isolate 15 at 4 times MIC incubated for 1 hr by RT-PCR relative to untreated control
Staphylococcus aureus [16] = assay: Decrease in mnhG expression in biofilm-associated cells of epidemic methicillin-resistant Staphylococcus aureus isolate 16-2 at 4 times MIC incubated for 1 hr by RT-PCR relative to untreated control
Staphylococcus aureus [17] = assay: Decrease in capC expression in biofilm-associated cells of epidemic methicillin-resistant Staphylococcus aureus isolate 16-2 at 4 times MIC incubated for 1 hr by RT-PCR relative to untreated control
Staphylococcus aureus [18] = assay: Increase in cna gene expression in biofilm-associated cells of epidemic methicillin-resistant Staphylococcus aureus isolate 16 at 4 times MIC incubated for 1 hr by whole genome microarray relative to untreated control
Staphylococcus aureus [19] = assay: Increase in cspB gene expression in biofilm-associated cells of epidemic methicillin-resistant Staphylococcus aureus isolate 16 at 4 times MIC incubated for 1 hr by whole genome microarray relative to untreated control
Staphylococcus aureus [20] = assay: Increase in dltC gene expression in biofilm-associated cells of epidemic methicillin-resistant Staphylococcus aureus isolate 16 at 4 times MIC incubated for 1 hr by whole genome microarray relative to untreated control
Staphylococcus aureus [21] = assay: Increase in recU gene expression in biofilm-associated cells of epidemic methicillin-resistant Staphylococcus aureus isolate 16 at 4 times MIC incubated for 1 hr by whole genome microarray relative to untreated control
Staphylococcus aureus [22] = assay: Decrease in sasF gene expression in biofilm-associated cells of epidemic methicillin-resistant Staphylococcus aureus isolate 16 at 4 times MIC incubated for 1 hr by RT-PCR relative to untreated control
Staphylococcus aureus [23] = assay: Increase in tcaR gene expression in biofilm-associated cells of epidemic methicillin-resistant Staphylococcus aureus isolate 16 at 4 times MIC incubated for 1 hr by whole genome microarray relative to untreated control
Staphylococcus aureus [24] = assay: Increase in mnhE gene expression in biofilm-associated cells of epidemic methicillin-resistant Staphylococcus aureus isolate 16 at 4 times MIC incubated for 1 hr by whole genome microarray relative to untreated control
Staphylococcus aureus [25] = assay: Increase in mnhG gene expression in biofilm-associated cells of epidemic methicillin-resistant Staphylococcus aureus isolate 16 at 4 times MIC incubated for 1 hr by whole genome microarray relative to untreated control
Staphylococcus aureus [26] = assay: Decrease in capG gene expression in biofilm-associated cells of epidemic methicillin-resistant Staphylococcus aureus isolate 16 at 4 times MIC incubated for 1 hr by RT-PCR relative to untreated control
Staphylococcus aureus [27] = assay: Increase in dltA gene expression in biofilm-associated cells of epidemic methicillin-resistant Staphylococcus aureus isolate 16 at 4 times MIC incubated for 1 hr by whole genome microarray relative to untreated control
Staphylococcus aureus [28] = assay: Increase in mnhF gene expression in biofilm-associated cells of epidemic methicillin-resistant Staphylococcus aureus isolate 16 at 4 times MIC incubated for 1 hr by whole genome microarray relative to untreated control
Staphylococcus aureus [29] = assay: Increase in sarA gene expression in biofilm-associated cells of epidemic methicillin-resistant Staphylococcus aureus isolate 16 at 4 times MIC incubated for 1 hr by whole genome microarray relative to untreated control
Staphylococcus aureus [30] = assay: Increase in ssaA expression in biofilm-associated cells of epidemic methicillin-resistant Staphylococcus aureus isolate 16-2 at 4 times MIC incubated for 1 hr by RT-PCR relative to untreated control
Staphylococcus aureus [31] = assay: Decrease in clpC expression in biofilm-associated cells of epidemic methicillin-resistant Staphylococcus aureus isolate 15 at 4 times MIC incubated for 1 hr by RT-PCR relative to untreated control
Staphylococcus aureus [32] = assay: Decrease in clpB gene expression in biofilm-associated cells of epidemic methicillin-resistant Staphylococcus aureus isolate 16 at 4 times MIC incubated for 1 hr by whole genome microarray relative to untreated control
Staphylococcus aureus [33] = assay: Increase in isaA gene expression in biofilm-associated cells of epidemic methicillin-resistant Staphylococcus aureus isolate 16 at 4 times MIC incubated for 1 hr by RT-PCR relative to untreated control
Staphylococcus aureus [34] = assay: Decrease in clpC gene expression in biofilm-associated cells of epidemic methicillin-resistant Staphylococcus aureus isolate 16 at 4 times MIC incubated for 1 hr by whole genome microarray relative to untreated control

CN(C)c1cc(NC(=O)CNC(C)(C)C)c(O)c2c1C[C@H]1C[C@H]3[C@H](N(C)C)C(O)=C(C(N)=O)C(=O)[C@@]3(O)C(O)=C1C2=O [TIGECYCLINE]
fold change (FC) (Staphylococcus aureus [1]): 1.64
fold change (FC) (Staphylococcus aureus [2]): 2.3
fold change (FC) (Staphylococcus aureus [3]): 2.06
fold change (FC) (Staphylococcus aureus [4]): 2.3
fold change (FC) (Staphylococcus aureus [5]): 14.86
fold change (FC) (Staphylococcus aureus [6]): 5.34
fold change (FC) (Staphylococcus aureus [7]): 3.53
fold change (FC) (Staphylococcus aureus [8]): 1.93
fold change (FC) (Staphylococcus aureus [9]): 2.02
fold change (FC) (Staphylococcus aureus [10]): 5.16
fold change (FC) (Staphylococcus aureus [11]): 7.41
fold change (FC) (Staphylococcus aureus [12]): 3.27
fold change (FC) (Staphylococcus aureus [13]): 2.84
fold change (FC) (Staphylococcus aureus [14]): 1.75
fold change (FC) (Staphylococcus aureus [15]): 1.09
fold change (FC) (Staphylococcus aureus [16]): 6.99
fold change (FC) (Staphylococcus aureus [17]): 1.09
fold change (FC) (Staphylococcus aureus [18]): 2.1
fold change (FC) (Staphylococcus aureus [19]): 5.59
fold change (FC) (Staphylococcus aureus [20]): 2.29
fold change (FC) (Staphylococcus aureus [21]): 4.38
fold change (FC) (Staphylococcus aureus [22]): 1.32
fold change (FC) (Staphylococcus aureus [23]): 2.79
fold change (FC) (Staphylococcus aureus [24]): 3.15
fold change (FC) (Staphylococcus aureus [25]): 2.85
fold change (FC) (Staphylococcus aureus [26]): 1.01
fold change (FC) (Staphylococcus aureus [27]): 2.63
fold change (FC) (Staphylococcus aureus [28]): 3.27
fold change (FC) (Staphylococcus aureus [29]): 2.37
fold change (FC) (Staphylococcus aureus [30]): 1.72
fold change (FC) (Staphylococcus aureus [31]): 1.23
fold change (FC) (Staphylococcus aureus [32]): 2.49
fold change (FC) (Staphylococcus aureus [33]): 7.68
fold change (FC) (Staphylococcus aureus [34]): 2.44
